How the values were obtained:
[1] = in vivo, po; cited from earlier work
[2] = test system: stress susceptible C57BL/6 mice after RSDS; assay: RSDS, therapeutic treatment of susceptible mice; assay type: in vivo, mouse; details: Imipramine 20 mg/kg-BW/day i.p. for 35 days
Excerpt: To test the therapeutic efficacy of DHCA/Mal-gluc, we induced depression-like behavior using two different methods. In the first set of studies, mice were subjected to RSDS followed by SI test. All susceptible mice with SI ratio <0.8 were randomly grouped into vehicle or DHCA/Mal-gluc group. Following two weeks treatment, all mice were subjected to SI re-testing without further stress exposure (Fig. 5a). […] In a parallel study to compare the treatment efficacy with the tricylic antidepressant Imipramine, we treated the susceptible mice with Imipramine through i.p. injection for 35 days. […] We then examined the effect of DHCA/Mal-gluc on RSDS-induced anhedonia and an ethologically relevant self-neglect phenotype. […] We next measured the levels of IL-6 in plasma and Rac1 in the NAc after behavioral testing. […]
All social interaction (SI) tests were performed under red-light conditions. […] Their movements were automatically monitored and recorded (Ethovision 3.0; Noldus Information Technology) for 2.5 min in the absence (target absent phase) of a novel CD-1 mouse and followed by 2.5 min exploratory behavior in the presence of a caged CD-1 mouse (target present phase). SI behavior was then calculated as a ratio of the time spent in the interaction zone with the target present divided by the time spent in the interaction zone with the target absent. […]

[3] = test system: CpG-rich sequences of mouse IL-6 promoter and introns 1, 3; assay: CpG-free luciferase reporter with IL-6 promoter/intron CpG-rich segments in N2a cells; assay type: cell-based; details: 24 h
Method: To investigate how DHCA may attenuate IL-6 generation, we tested the effect of DHCA on Toll-like receptor-4 mediated signaling pathways. PBMCs were pretreated with DHCA and stimulated with LPS using the same protocol as during screening. Samples were taken at 0, 30 min, 60 min, 6 h and 16 h following LPS stimulation and cell lysates were subjected to a multiplex ELISA assay. […] Based on evidence that DNA methylation at a single CpG in the human IL-6 promoter region effectively alters IL-6 expression, we next tested whether DHCA can modulate IL-6 gene expression through methylation mechanisms. We treated PBMC cells with DHCA and measured the expression of enzymes essential for DNA methylation/demethylation. […] To investigate how methylation influences IL-6 gene expression, we employed the CpG-free luciferase reporter system. We cloned a ~280 bp CpG rich DNA segment from the mouse IL-6 promoter into a promoterless CpG-free reporter construct and transfected into N2a cells. We found the CpG-rich IL-6 promoter segment presented no inherent promoter activity as reflected by no differences in luciferase activity compared to the control construct (Fig. 2f). […] We then cloned CpG rich DNA segments from IL-6 introns 1, 3 or 4 into the CpG-free luciferase reporter construct with a minimal EF1 promoter and no enhancer activity. […] In contrast, the CpG-rich region of IL-6 intron 4 presented no observable enhancer activity (Fig. 2g). […] To test whether DHCA may influence the expression of other pro-inflammatory factors, we measured the level of secreted cytokines following LPS stimulation (Supplementary Fig. 3).
CpG-rich motif from mouse IL-6 promoter and intron 1, intron 3, and intron 4 were cloned into basic (no promoter or enhancer) or promoter (minimal EF1 promoter with no enhancer) pCpG-free Lucia plasmid (InvivoGen) using In-Fusion Cloning Kit (Clontech Laboratories). Plasmids were prepared in E. coli GT115 cells and expressed in N2A neuoblastoma cells using lipofectamine 2000 (ThermoFisher) according to manufacturer’s instruction. Following overnight recovery, cells were subjected to 5 µM of methylation inhibitor 5-Aza-2′-deoxycytidine (AZA-DC) or DHCA treatment. Twenty-four hours later, 10 µl of medium was incubated with 50 µl of QUANTI-Luc luciferase substrate for luciferase activity assessment.

For OMe-quercetin-glucuronide, the “Detection in Brain” value [1] is listed as “+” and the “Detection in Plasma” value [1] is listed as “+”.
In the case of quercetin-glucuroide, the “Detection in Brain” value [1] is given as “+” and the “Detection in Plasma” value [1] is given as “+”.
With `CN(C)CCCN1c2ccccc2CCc2ccccc21` [Imipramine] the “susceptible mice with resilient phenotype upon retesting” value [2] was “about 50%”.
For OMe-resveratrol-glucuronide, the “Detection in Brain” value [1] is listed as “+” and the “Detection in Plasma” value [1] is listed as “+”.
In the case of `Nc1ncn([C@H]2C[C@H](O)[C@@H](CO)O2)c(=O)n1` [AZA-DC, 5-aza-2′-deoxycytidine], the “luciferase expression, CpG-rich IL-6 promoter segment” value ([3]; 5 µM) is reported as “no effect”, the “luciferase (enhancer) activity, IL-6 intron 1” value [3] is reported as “partially reduced” and the “luciferase (enhancer) activity, IL-6 intron 3” value [3] is reported as “totally abolished”.
In the case of resveratrol-glucuronide, the “Detection in Brain” value [1] is listed as “+” and the “Detection in Plasma” value [1] is listed as “+”.

— article PMC5797143, “Epigenetic modulation of inflammation and synaptic plasticity promotes resilience against stress in mice” (Nature Communications, 2018)
